These results are taken from PMC6342301, “Potent, multi-target serine protease inhibition achieved by a simplified β-sheet motif” (PLoS ONE, 2019).

Read-outs that look alike come from different tables or passages of the source. Bridge positions count the residues as written; N and C are the ends. Peptide text beside a SMILES is read from it.

For experiment [1], the target named is T1, KLK7 (Homo sapiens, UniProt P49862).
T1 construct: made in house; host or cells: Pichia pastoris strain X-33
Nature of the experiment: Competitive inhibition assay against KLK7 (KHLY-pNA substrate). To be noted: for Ki: KLK7, substrate KHLY-pNA, Morrison equation. The format is biochemical. An excerpt:
KLK7 was produced as a zymogen in the yeast Pichia pastoris strain X-33 previously developed and optimised by Dr Maria Brattsand [29]. Expressed proteins were purified using cation exchange chromatography on UnoSphere S (Biorad) and activated by treatment with enterokinase (10 units per milligram purified zymogen; Thermo Fisher Scientific) before a final polishing step to remove enterokinase, again using cation exchange chromatography. The active site concentration of purified KLK7 was determined using the serpin α1- proteinase inhibitor (A1PI) which binds to KLK7 with 1:1 stoichiometry. Briefly, a fixed amount of KLK7 was pre-incubated with a range of inhibitor concentrations at room temperature for 20 min before adding a constant concentration of substrate KHLY-pNA. The residual KLK7 activities were measured as the increase of absorbance at 405 nm for 10 min (ΔOD405/min) and plotted against respective inhibitor concentrations. The active site concentration was determined by linear regression to find the concentration of inhibitor required for complete KLK7 inhibition (ΔOD405/min drops to zero), which is equal to the concentration of KLK7 active site.
Inhibitory property of SFTI inhibitors was assessed by determining the inhibition constant (Ki) in competitive inhibition assays against a range of proteases as described before. Serial dilutions of the inhibitor were pre-incubated with a fix concentration of protease in assay buffer (0.1 M Tris pH 8.0, 0.1 M NaCl and 0.05% Triton X-100) at room temperature for 10 min. Assays were initiated by addition of respective peptide-pNA substrates. Absorbance changes at 405 nm were monitored using a micro plate spectrophotometer (Bio-rad Benchmark Plus) over 5 min. Inhibition constants were calculated in GraphPad Prism 5.01 (La Jolla California, USA) by non-linear regression using the Morrison equation for tight binding inhibitors.

The target of experiment [2] is KLK14. The conditions noted are these: substrate Ac-YANR-pNA; cited from earlier work.
The target in experiment [3] is T1, KLK7. More on the design: method as in PMID 26393374. The conditions noted are these: substrate KHLY-pNA; cited from earlier work.
Experiment [4] addresses KLK5. To be noted: substrate Ac-YRSR-pNA; cited from earlier work.
Experiment [5] deals with Trypsin. To be noted: substrate Ac-YASR-pNA; cited from earlier work.
Experiment [6] addresses T1, KLK7. The conditions noted are these: cited from earlier work.

T1 sequence (P49862 30-253): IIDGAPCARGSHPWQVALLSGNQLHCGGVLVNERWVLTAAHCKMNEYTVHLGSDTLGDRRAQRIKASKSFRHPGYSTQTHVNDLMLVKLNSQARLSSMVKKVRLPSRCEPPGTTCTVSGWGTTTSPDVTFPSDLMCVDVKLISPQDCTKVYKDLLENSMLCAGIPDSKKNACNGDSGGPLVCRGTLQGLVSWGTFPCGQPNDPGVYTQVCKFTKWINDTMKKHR

By Ki is commonly meant a measure of affinity in units of concentration, obtained from inhibition or displacement. Molecule `CC[C@H](C)[C@@H]1NC(=O)[C@@H]2CCCN2C(=O)[C@@H]2CCCN2C(=O)[C@H]([C@@H](C)CC)NC(=O)[C@H](CO)NC(=O)[C@H](CCCCN)NC(=O)[C@H]([C@@H](C)O)NC(=O)[C@@H]2CSSC[C@H](NC1=O)C(=O)N[C@@H](Cc1ccccc1)C(=O)N1CCC[C@H]1C(=O)N[C@@H](CC(=O)O)C(=O)NCC(=O)N[C@@H](CCCNC(=N)N)C(=O)N2` [SFTI-1, Sunflower trypsin inhibitor-1, reference compound] registered a Ki in experiment [1] of 4800 ± 200 nM.
The same measure, in the same setting: the same measure for `CC[C@H](C)[C@@H]1NC(=O)[C@@H]2CCCN2C(=O)[C@@H]2CCCN2C(=O)[C@H]([C@@H](C)CC)NC(=O)[C@H](CO)NC(=O)[C@H](CCCNC(=N)N)NC(=O)[C@H]([C@@H](C)O)NC(=O)[C@@H]2CSSC[C@H](NC1=O)C(=O)N[C@@H](Cc1ccccc1)C(=O)N1CCC[C@H]1C(=O)N[C@@H](CC(=O)O)C(=O)NCC(=O)N[C@@H](CCCNC(=N)N)C(=O)N2` [SFTI-RCTR] (cyclo(CFPDGRCTRSIPPI); disulfide 1-7): 220 ± 6 nM.
For the molecule “SFTI-TCTR: SFTI variant GTCTRSIPPICNPN with four mutations R2T (P4), K5R (P1), F12N, D14N in the cyclic backbone (head-to-tail cyclic backbone)”, the inhibition constant Ki in experiment [2] is 0.4 ± 0.02 nM; in experiment [3] it was 17 ± 0.4 nM; in experiment [4] it was 2 ± 0.1 nM; in experiment [5] it was 0.7 ± 0.07 nM. For the same molecule, the “fold increased inhibitory potency against KLK7 compared to SFTI-1” value in experiment [1] (ratio of Ki values, relative to SFTI-1) was 286 fold. Besides, the “fold increase in KLK7 inhibitory potency compared to SFTI-RCTR” value in experiment [1] (ratio of Ki values, relative to SFTI-RCTR) is listed as 13 fold.

B1: recombinant LEKTI fragment comprising domains 8–11: recombinant LEKTI fragment comprising domains 8–11 (protein)
chain: EAAKEICSEFRDQVRNGTLICTREHNPVRGPDGKMHGNKCAMCASVFKLEEEEKKNDKEEKGKVEAEKVKREAVQELCSEYRHYVRNGRLPCTRENDPIEGLDGKIHGNTCSMCEAFFQQEAKEKERAEPRAKVKREAEKETCDEFRRLLQNGKLFCTRENDPVRGPDGKTHGNKCAMCKAVFQKENEERKRKEEEDQRNAAGHGSSGGGGGNTQDECAEYREQMKNGRLSCTRESDPVRDADGKSYNNQCTMCKAKLEREAERKNEY
modifications: intradomain disulfides; check residue is from a known polymorphic site (R711Q), not from the pape
As to B1, in experiment [6], the Ki is 34.8 nM.
